Patent US7615651B2, “Diaryl, dipyridinyl and aryl-pyridinyl derivatives and uses thereof” (Pfizer Inc., priority 2006, dated 2009)
Structures can show the parent of a compound that is named as a salt. Where two headings read alike, the source gives them in different places.

How the values were obtained:
Assay type in all cases: biochemical
opioid receptor kappa = target: T1, opioid receptor kappa (Homo sapiens, UniProt P41145); assay: GTPγ[35S] binding assay, antagonism of dynorphin-A
T1 construct: expressed in transfected cells
Protocol: (§1) Membranes were prepared from cells as described (Bass et al, 1996). GTPγ[5S] binding assays were performed in a 96 well FlashPlate™ format in duplicate using […] GTPγ[^35S] and 5 μg membrane per well in assay buffer composed of 50 mM Tris HCl, pH 7.4, 5 mM MgCl2, 1 mM EDTA, 100 mM NaCl, 30 μM GDP, 0.1% bovine serum albumin and the following protease inhibitors: 100 μg/ml bacitracin, 100 μg/ml benzamidine, 5 μg/ml aprotinin, 5 μg/ml leupeptin. The assay mix was then incubated at 30° C. with increasing concentrations of antagonist (10^−10 M to 10^−5 M) for 10 minutes and challenged with the agonists BW-373U86 (1 nM), dynorphin-A (10 nM), […] (1 μM) for opioid receptors delta, kappa, and mu, respectively. The assays were performed at 30° C. for one hour. The FlashPlates were then centrifuged at 2000×g for 10 minutes. Stimulation of GTPγ[^35S] binding was then quantified using a Wallac Microbeta and Ki calculations were done using Prism™ by Graphpad.

opioid receptor mu = target: T2, opioid receptor mu (Homo sapiens, UniProt P35372); assay: GTPγ[35S] binding assay, antagonism of endorphin
T2 construct: expressed in transfected cells
Protocol: as §1

opioid receptor delta = target: T3, opioid receptor delta (Homo sapiens, UniProt P41143); assay: GTPγ[35S] binding assay, antagonism of BW-373U86
T3 construct: expressed in transfected cells
Protocol: as §1

[1] = read-out: Kappa functional Ki (GTPγ[35S] binding)
[2] = read-out: Mu functional Ki (GTPγ[35S] binding)
[3] = read-out: Delta functional Ki (GTPγ[35S] binding)
[4] = read-out: Kappa functional (GTPγ[35S] binding Ki)
[5] = read-out: Mu functional (GTPγ[35S] binding Ki)
[6] = read-out: Delta functional (GTPγ[35S] binding Ki)
[7] = average Ki, antagonism of dynorphin-A (10 nM) stimulated GTPγ[35S] binding, kappa opioid receptor membranes, read-out: Kappa functional (GTPγ[35S] binding Ki)
[8] = average Ki, antagonism of endorphin (1 μM) stimulated GTPγ[35S] binding, mu opioid receptor membranes, read-out: Mu functional (GTPγ[35S] binding Ki)
[9] = average Ki, antagonism of BW-373U86 (1 nM) stimulated GTPγ[35S] binding, delta opioid receptor membranes, read-out: Delta functional (GTPγ[35S] binding Ki)
[10] = average Ki, antagonism of dynorphin-A (10 nM) at kappa opioid receptor membranes, read-out: Kappa functional Ki (GTPγ[35S] binding)
[11] = average Ki, antagonism of endorphin (1 μM) at mu opioid receptor membranes, read-out: Mu functional Ki (GTPγ[35S] binding)
[12] = average Ki, antagonism of BW-373U86 (1 nM) at delta opioid receptor membranes, read-out: Delta functional Ki (GTPγ[35S] binding)

T3 sequence (P41143 whole entry): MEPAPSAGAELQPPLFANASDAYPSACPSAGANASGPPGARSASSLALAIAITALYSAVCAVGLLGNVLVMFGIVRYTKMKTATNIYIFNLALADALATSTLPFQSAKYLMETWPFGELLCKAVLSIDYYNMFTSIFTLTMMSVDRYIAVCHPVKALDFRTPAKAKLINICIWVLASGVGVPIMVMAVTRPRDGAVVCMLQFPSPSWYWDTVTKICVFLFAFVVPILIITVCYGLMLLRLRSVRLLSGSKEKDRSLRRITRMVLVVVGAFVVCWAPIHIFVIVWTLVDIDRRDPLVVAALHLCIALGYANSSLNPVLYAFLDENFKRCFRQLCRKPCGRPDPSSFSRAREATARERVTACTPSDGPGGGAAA
T2 sequence (P35372 whole entry): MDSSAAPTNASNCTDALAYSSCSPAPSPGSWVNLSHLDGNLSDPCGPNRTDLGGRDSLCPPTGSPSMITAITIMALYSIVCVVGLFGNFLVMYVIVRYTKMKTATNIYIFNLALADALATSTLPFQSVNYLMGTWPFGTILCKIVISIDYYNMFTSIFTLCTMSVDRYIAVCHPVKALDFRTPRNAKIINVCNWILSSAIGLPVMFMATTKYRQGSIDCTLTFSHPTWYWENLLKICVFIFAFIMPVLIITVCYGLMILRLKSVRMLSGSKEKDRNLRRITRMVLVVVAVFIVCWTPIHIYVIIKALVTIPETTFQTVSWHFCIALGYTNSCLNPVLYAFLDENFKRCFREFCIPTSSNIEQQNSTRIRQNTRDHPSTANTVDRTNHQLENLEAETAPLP
T1 sequence (P41145 whole entry): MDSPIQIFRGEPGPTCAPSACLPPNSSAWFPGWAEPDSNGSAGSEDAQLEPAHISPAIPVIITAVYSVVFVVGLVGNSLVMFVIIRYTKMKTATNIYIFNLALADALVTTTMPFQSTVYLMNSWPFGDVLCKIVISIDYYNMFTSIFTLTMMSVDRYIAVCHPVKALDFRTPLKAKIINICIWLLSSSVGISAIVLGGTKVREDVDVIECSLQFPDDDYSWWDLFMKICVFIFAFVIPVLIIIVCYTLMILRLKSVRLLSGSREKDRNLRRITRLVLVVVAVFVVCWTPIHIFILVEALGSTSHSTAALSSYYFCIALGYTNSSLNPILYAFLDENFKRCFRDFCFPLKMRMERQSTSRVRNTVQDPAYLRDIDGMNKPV

Row | Compound | Ki (opioid receptor kappa; [1]) | Ki (opioid receptor mu; [2]) | Ki (opioid receptor delta; [3]) | Ki (opioid receptor kappa; [4]) | Ki (opioid receptor mu; [5]) | Ki (opioid receptor delta; [6]) | also measured
1 | Cc1cc(C(N)=O)ccc1-c1ccc(CNCc2ccc3c(c2)CCO3)cc1 [4B-20] |  |  |  | 34.5 nM | 7.1 nM | 4.21 nM | 
2 | CC(C)CCNCc1ccc(-c2cccc(C(N)=O)c2)cc1Cl [1A-13] |  |  |  |  |  |  | Ki (opioid receptor kappa; [7]): 23.4 nM; Ki (opioid receptor mu; [8]): 25 nM; Ki (opioid receptor delta; [9]): 33.6 nM
3 | NC(=O)c1ccc(-c2ccc(CN[C@H]3CCc4ccccc43)cc2)c(Cl)c1 [4B-38] | 1.14 nM | 3.33 nM | 5.59 nM |  |  |  | 
4 | Cc1cc(C(N)=O)ccc1-c1c(F)cc(CNC2Cc3ccccc3C2)cc1F [1B-04] |  |  |  | 20.1 nM | 2.66 nM | 5.28 nM | 
5 | Cc1cc(C(N)=O)ccc1-c1ccc(CNCCOc2ccccc2)cc1 [4B-16] |  |  |  | 7.65 nM | 2.82 nM | 0.751 nM | 
6 | NC(=O)c1cccc(-c2ccc(CNCC3CCCOC3)cc2Cl)c1 (stereo not drawn) [4A-06] |  |  |  | 14.7 nM | 12.5 nM | 23.6 nM | 
7 | Cc1cc(C(N)=O)ccc1-c1ccc(CNCC2CCOCC2)cc1 [4B-40] | 9.05 nM | 48.3 nM | 20.4 nM |  |  |  | 
8 | Cc1cc(CNCCC(C)C)ccc1-c1cccc(NS(C)(=O)=O)c1 [8A-02] |  |  |  |  |  |  | Ki (opioid receptor kappa; average Ki, antagonism of dynorphin-A (10 nM) at kappa opioid receptor, read-out: Kappa functional Ki (GTPγ[35S] binding)): 15.3 nM; Ki (opioid receptor mu; average Ki, antagonism of endorphin (1 μM) at mu opioid receptor, read-out: Mu functional Ki (GTPγ[35S] binding)): 1.15 nM; Ki (opioid receptor delta; average Ki, antagonism of BW-373U86 (1 nM) at delta opioid receptor, read-out: Delta functional Ki (GTPγ[35S] binding)): 10.4 nM
9 | CC1(C)OCC(CNCc2ccc(-c3ccc(C(N)=O)cc3Cl)c(Cl)c2)O1 (stereo not drawn) [4B-79] |  |  |  |  |  |  | Ki (opioid receptor kappa; [10]): 128 nM; Ki (opioid receptor mu; [11]): 228 nM; Ki (opioid receptor delta; [12]): 1.42 nM
10 | CC(C)CCNCc1c(F)cc(-c2ccc(C(N)=O)cc2)cc1F [1B-05] |  |  |  |  |  |  | Ki (opioid receptor kappa; [7]): 162 nM; Ki (opioid receptor mu; [8]): 107 nM; Ki (opioid receptor delta; [9]): 3000 nM
11 | Cc1cc(C(N)=O)ccc1-c1ccc(CNCCC2CC2)cc1 [4B-11] |  |  |  | 5.7 nM | 8.38 nM | 7.05 nM | 
12 | Cc1cc(C(N)=O)ccc1-c1ccc(CNCc2cccc(Cl)c2)cc1 [4B-10] |  |  |  | 1.58 nM | 0.94 nM | 0.602 nM | 
13 | NC(=O)c1cccc(-c2ccc(CNC[C@@H]3CCCO3)cc2Cl)c1 [4A-07] |  |  |  | 14.7 nM | 9.03 nM | 24.3 nM | 
14 | Cc1cc(C(N)=O)ccc1-c1ccc(CNC2(c3cccc(Cl)c3)CC2)cc1 [4B-23] |  |  |  | 14.2 nM | 266 nM | 46.3 nM | 
15 | CC(C)CCNCc1ccc(-c2cccc(C(N)=O)c2)cc1O [1A-06] |  |  |  |  |  |  | Ki (opioid receptor kappa; [7]): 101 nM; Ki (opioid receptor mu; [8]): 52.3 nM; Ki (opioid receptor delta; [9]): 0.0351 nM
16 | NC(=O)c1cccc(-c2ccc(CNCC3CCCCO3)cc2Cl)c1 (stereo not drawn) [4A-12] |  |  |  | 18.2 nM | 15 nM | 22.7 nM | 
17 | Cc1cc(C(N)=O)ccc1-c1ccc(CNCCC2CCOCC2)cc1 [4B-05] |  |  |  | 3.39 nM | 4.07 nM | 0.893 nM | 
18 | Cc1cc(C(N)=O)ccc1-c1ccc(CNC2Cc3ccccc3C2)c(F)c1 [1B-10] |  |  |  | 0.256 nM | 0.0717 nM | 0.0326 nM | 
19 | Cc1cc(C(N)=O)ccc1-c1cc(F)c(CNC2Cc3ccccc3C2)c(F)c1 [1B-07] |  |  |  | 0.241 nM | 0.0494 nM | 0.0993 nM | 
20 | Cc1cc(CNCCC(C)C)cc(C)c1-c1cccc(C(N)=O)c1 [1A-02] |  |  |  |  |  |  | Ki (opioid receptor kappa; [7]): 6.72 nM; Ki (opioid receptor mu; [8]): 1.25 nM; Ki (opioid receptor delta; [9]): 2.59 nM
21 | NC(=O)c1ccc(-c2ccc(CNC3Cc4ccccc4C3)nc2)c(Cl)c1 [1D-05] |  |  |  | 4.96 nM | 1.85 nM | 4.85 nM | 
22 | CCOCCNCc1ccc(-c2cccc(C(N)=O)c2)c(Cl)c1 [6A-01] |  |  |  |  |  |  | Ki (opioid receptor kappa; [10]): 41.6 nM; Ki (opioid receptor mu; [11]): 12.8 nM; Ki (opioid receptor delta; [12]): 25.5 nM
23 | CC(C)CCNCc1ccc(-c2ncc(C(N)=O)cc2Cl)cc1 [4C-01] |  |  |  |  |  |  | Ki (opioid receptor kappa; [10]): 15.6 nM; Ki (opioid receptor mu; [11]): 28 nM; Ki (opioid receptor delta; [12]): 33.8 nM
24 | Cc1cc(C(N)=O)ccc1-c1cc(F)c(CNCCC2CCOCC2)c(F)c1 [4B-50] |  |  |  |  |  |  | Ki (opioid receptor kappa; [10]): 0.948 nM; Ki (opioid receptor mu; [11]): 1.45 nM; Ki (opioid receptor delta; [12]): 0.135 nM
25 | COc1cc(-c2cccc(C(N)=O)c2)ccc1CNCCC(C)C [1A-05] |  |  |  |  |  |  | Ki (opioid receptor kappa; [7]): 16.6 nM; Ki (opioid receptor mu; [8]): 14 nM; Ki (opioid receptor delta; [9]): 10.7 nM
26 | Cc1cc(C(N)=O)ccc1-c1ccc(CNCC2Cc3ccccc3C2)cc1 [4B-35] | 7.13 nM | 1.32 nM | 0.687 nM |  |  |  | 
27 | Cc1cc(C(N)=O)ccc1-c1ccc(CNCCC(C)C)cc1 [E4-02, (4′-carbamoyl-2′-methyl-biphenyl-4-ylmethyl)-(3-methyl-butyl)-ammonium chloride] |  |  |  | 2.16 nM | 6.2 nM | 7.91 nM | 

More lines, main results first:

Row | Ki (opioid receptor kappa; [1]) | Ki (opioid receptor mu; [2]) | Ki (opioid receptor delta; [3]) | Ki (opioid receptor kappa; [4]) | Ki (opioid receptor mu; [5]) | Ki (opioid receptor delta; [6]) | Compound | also measured
28 | 9.5 nM | 13.7 nM | 11.8 nM |  |  |  | CC(C)CCNCc1cc(F)c(-c2ccc(C(N)=O)cc2Cl)cc1F [4B-80] | 
29 | 32.1 nM | 8.62 nM | 4.92 nM |  |  |  | Cc1ncsc1CCNCc1ccc(-c2cccc(C(N)=O)c2)c(Cl)c1 [6A-08] | 
30 | 16.8 nM | 13.4 nM | 15.2 nM |  |  |  | CCc1cc(C(N)=O)ccc1-c1cc(F)c(CNCCC(C)C)c(F)c1 [4B-81] | 
31 | 25.7 nM | 61.7 nM | 26.1 nM |  |  |  | Cc1cc(C(N)=O)ccc1-c1ccc(CNCc2ccccn2)cc1 [4B-44] | 
32 | 13 nM | 3.9 nM | 11 nM |  |  |  | Cc1cc(-c2nnc[nH]2)ccc1-c1ccc(C[NH2+]CCC(C)C)cc1 [E7-01, [2′-methyl-4′-(4H-[1,2,4]-triazol-3-yl)-biphenyl-4-ylmethyl]-(3-methyl-butyl)-amine hydrochloride] | 
33 | 5.48 nM | 2.48 nM | 0.588 nM |  |  |  | Cc1cc(C(N)=O)ccc1-c1ccc(CNCCC(C)C)c(OCc2ccccc2)c1 [4B-85] | 
34 | 1.95 nM | 2.16 nM | 0.707 nM |  |  |  | Cc1cc(C(N)=O)ccc1-c1cc(F)c(CNCCC2CCOCC2)c(F)c1 [4B-51] | 
35 | 1.66 nM | 1.17 nM | 1.66 nM |  |  |  | Cc1cc(-c2ccc(C(N)=O)cc2C)ccc1CNCCC(C)C [4B-90] | 
36 | 13.9 nM | 12 nM | 16.1 nM |  |  |  | CCc1cc(C(N)=O)ccc1-c1ccc(CNCCC(C)C)cc1 [4B-48] | 
37 | 1.95 nM | 0.489 nM | 1.95 nM |  |  |  | NC(=O)c1cnc(-c2ccc(CNC3Cc4ccccc4C3)cc2)c(Cl)c1 [4C-02] | 
38 | 8.95 nM | 70.2 nM | 10.6 nM |  |  |  | Cc1cc(C(N)=O)ccc1-c1ccc(CNCc2cccnc2)cc1 [4B-43] | 
39 | 13.5 nM | 61.4 nM | 14.1 nM |  |  |  | Cc1cc(C(N)=O)ccc1-c1ccc(CN[C@H](C)c2ccccc2)cc1 [4B-41] | 
40 | 5.44 nM | 9.83 nM | 13 nM |  |  |  | Cc1cc(CNCC2CCCO2)ccc1-c1ccc(C(N)=O)cc1C (stereo not drawn) [4B-72] | 
41 | 47.4 nM | 14.2 nM | 29.7 nM |  |  |  | CC(C)CCNCc1ccc(-c2ccc(-c3ncn[nH]3)cc2C(F)(F)F)cc1 [7B-05] | 
42 | 4.45 nM | 4.37 nM | 4.8 nM |  |  |  | Cc1cc(C(N)=O)ccc1-c1cc(F)c(CNCCC(C)C)cc1F [4B-74] | 
43 | 8.55 nM | 30.7 nM | 19 nM |  |  |  | Cc1cc(C(N)=O)ccc1-c1cc(F)c(CNC[C@@H]2CCCO2)c(F)c1 [4B-55] | 
44 | 4.4 nM | 0.72 nM | 3.71 nM |  |  |  | Cc1cc(CNCCC(C)C)ccc1-c1ccc(-c2ncn[nH]2)cc1 [7B-02] | 
45 | 7.01 nM | 138 nM | 15.4 nM |  |  |  | CC[C@@H](NCc1c(F)cc(-c2ccc(C(N)=O)cc2C)cc1F)c1ccccn1 [4B-52] | 
